≈ marks a conversion by molar mass, not a printed value.

Experimental findings from article PMC12153338, “Resistance to oxyimino-cephalosporins conferred by an alternative mechanism of hydrolysis by the Acinetobacter-derived cephalosporinase-33 (ADC-33), a class C β-lactamase present in carbapenem-resistant Acinetobacter baumannii (CRAb)” (mBio, 2025) are described below.

The first test has as its system DH10B alone. The test is described as follows: MIC by broth microdilution, DH10B alone. The test is classed as cell-based. The note with it: Escherichia coli; DH10B alone (control strain); FDC in iron-depleted cation-adjusted MH broth. The method, then: (§1) Susceptibility testing to standard antibiotics was performed by broth microdilution according to 2024 Clinical and Laboratory Standards Institute (CLSI) guidelines ([38]). MICs for FDC were done in iron-depleted cation-adjusted Mueller-Hinton (MH) broth according to CLSI methods. All MICs were interpreted according to the 2024 CLSI guidelines ([38]). MICs are done in triplicate, and the mode MIC value is reported.
(§2) blaADC-7 pBCSK− was cloned and expressed in E. coli DH10B cells as previously described for MIC determinations ([3]). The pBCSK-non-inducible phagemid vector has a chloramphenicol resistance gene used to aid selection. All other blaADC variants were synthesized by GenScript according to the blaADC-7 pBCSK− strategy, cloning into the XbaI/BamHI sites of the pBCSK− vector ([5]).
`CO/N=C(\C(=O)N[C@@H]1C(=O)N2C(C(=O)[O-])=C(C[N+]3(C)CCCC3)CS[C@H]12)c1csc(N)n1` [FEP, cefepime] gave an MIC of 0.06 µg/mL (≈ 0.125 µM).
On the same count and under the same terms, in the case of `Cn1c(N)c(NC(=O)NCCN)c[n+]1CC1=C(C(=O)O)N2C(=O)[C@@H](NC(=O)/C(=N\OC(C)(C)C(=O)[O-])c3nsc(N)n3)[C@H]2SC1` [TOL, ceftolozane] it was 0.5 µg/mL (≈ 0.75 µM).

The next test relates to ADC-73 in DH10B Escherichia coli. Description: MIC by broth microdilution, ADC-73 in DH10B E. coli. The test is classed as cell-based. The conditions noted are these: DH10B E. coli expressing ADC-73 (non-Adup) from pBCSK−, FDC in iron-depleted cation-adjusted MH broth, mode of triplicate. As for the experimental part:
as §1, §2
Consider `CO/N=C(\C(=O)N[C@@H]1C(=O)N2C(C(=O)[O-])=C(C[N+]3(C)CCCC3)CS[C@H]12)c1csc(N)n1` [FEP, cefepime], for which the minimal inhibitory concentration (MIC) came out at 0.25 µg/mL (≈ 0.52 µM).
The same measure, in the same setting: under `Cn1c(N)c(NC(=O)NCCN)c[n+]1CC1=C(C(=O)O)N2C(=O)[C@@H](NC(=O)/C(=N\OC(C)(C)C(=O)[O-])c3nsc(N)n3)[C@H]2SC1` [TOL, ceftolozane] stands 2 µg/mL (≈ 3 µM).

Another test relates to ADC-219 in DH10B Escherichia coli. The test is described as follows: MIC by broth microdilution, ADC-219 in DH10B E. coli. Type of test: cell-based. The note with it: DH10B E. coli expressing ADC-219 (Adup) from pBCSK−, FDC in iron-depleted cation-adjusted MH broth, mode of triplicate. The method, then:
as §1, §2
Regarding `CO/N=C(\C(=O)N[C@@H]1C(=O)N2C(C(=O)[O-])=C(C[N+]3(C)CCCC3)CS[C@H]12)c1csc(N)n1` [FEP, cefepime], the MIC stood at 0.125 µg/mL (≈ 0.26 µM).
The same measure, in the same setting: in the case of `Cn1c(N)c(NC(=O)NCCN)c[n+]1CC1=C(C(=O)O)N2C(=O)[C@@H](NC(=O)/C(=N\OC(C)(C)C(=O)[O-])c3nsc(N)n3)[C@H]2SC1` [TOL, ceftolozane] it was 128 µg/mL (≈ 192 µM).

A further test concerns the target ADC-217 (Acinetobacter baumannii, UniProt Q6DRA1, V286E, form not given). Description: Steady-state hydrolysis kinetics, ADC-217. The test is classed as biochemical. The note with it: hydrolysis by ADC-217. The method, then: Steady-state kinetic parameters were determined by combining pure enzyme with antibiotic substrates in 50 mM NaH2PO4, pH 7.4, at room temperature. Changes in absorbance were measured on the Cary 60 UV−Vis spectrophotometer (Agilent Technologies) and converted to velocity using the change in extinction coefficient specific to nitrocefin (NCF) (ε482 = 17,400 M^−1·cm^−1), CAZ (ε260 8,660 M^−1·cm^−1), and cefiderocol (ε259 9,430 M^−1·cm^−1). The concentration of enzyme ranged from 0.1 to 1.0 µM, and all kinetic experiments were performed at least in triplicate. Initial velocities were fitted to the Michaelis-Menten equation, yielding kcat and KM values. The standard error for kcat/KM values was generated by factoring in the larger of the proportional standard errors for the individual kcat value and the KM value. For ADC/substrate combinations in which the KM was too large to accurately determine both kcat and KM values, the initial velocities at kcat/KM values were calculated from linear fits of vo in low [S] ranges (<0.08 * KM).
As for `CO/N=C(\C(=O)N[C@@H]1C(=O)N2C(C(=O)[O-])=C(C[N+]3(C)CCCC3)CS[C@H]12)c1csc(N)n1` [FEP, cefepime], the Km is 155 µM and the kcat was found to be 30.2 s⁻¹.

In another test the test system is ADC-33 in DH10B Escherichia coli. Description: MIC by broth microdilution, ADC-33 in DH10B E. coli. The conditions noted are these: DH10B E. coli expressing ADC-33 (Adup) from pBCSK−, FDC in iron-depleted cation-adjusted MH broth, mode of triplicate. Type of test: cell-based. As for the experimental part:
as §1, §2
The compound `CO/N=C(\C(=O)N[C@@H]1C(=O)N2C(C(=O)[O-])=C(C[N+]3(C)CCCC3)CS[C@H]12)c1csc(N)n1` [FEP, cefepime] displayed a minimal inhibitory concentration (MIC) of 1 µg/mL (≈ 2.08 µM).
Same read-out and setting: under `Cn1c(N)c(NC(=O)NCCN)c[n+]1CC1=C(C(=O)O)N2C(=O)[C@@H](NC(=O)/C(=N\OC(C)(C)C(=O)[O-])c3nsc(N)n3)[C@H]2SC1` [TOL, ceftolozane] stands 512 µg/mL (≈ 768 µM).

For a further test, the system named is ADC-172 in DH10B Escherichia coli. Description: MIC by broth microdilution, ADC-172 in DH10B E. coli. Type of test: cell-based. The note with it: DH10B E. coli; ADC-172 versus ADC-30. As for the experimental part: as §1, §2
Turning to `CO/N=C(\C(=O)N[C@@H]1C(=O)N2C(C(=O)[O-])=C(C[N+]3(C)CCCC3)CS[C@H]12)c1csc(N)n1` [FEP, cefepime], the “fold increase in MIC from ADC-30 to ADC-172” value is on record as at most 16 fold.

The test is the same for the next values; noted with them: Escherichia coli; DH10B E. coli expressing ADC-172 (Adup) from pBCSK−; FDC in iron-depleted cation-adjusted MH broth; mode of triplicate; read-out: MIC.
With `CO/N=C(\C(=O)N[C@@H]1C(=O)N2C(C(=O)[O-])=C(C[N+]3(C)CCCC3)CS[C@H]12)c1csc(N)n1` [FEP, cefepime], the MIC worked out at 8 µg/mL (≈ 16.6 µM).
With `Cn1c(N)c(NC(=O)NCCN)c[n+]1CC1=C(C(=O)O)N2C(=O)[C@@H](NC(=O)/C(=N\OC(C)(C)C(=O)[O-])c3nsc(N)n3)[C@H]2SC1` [TOL, ceftolozane], the minimum inhibitory concentration (MIC) stood at 512 µg/mL (≈ 768 µM).

The next test concerns ADC-7 in DH10B Escherichia coli. Description: MIC by broth microdilution, ADC-7 in DH10B E. coli. The note with it: DH10B E. coli expressing ADC-7 (non-Adup) from pBCSK−, FDC in iron-depleted cation-adjusted MH broth, mode of triplicate. The test is classed as cell-based. The method, then: as §1, §2
`CO/N=C(\C(=O)N[C@@H]1C(=O)N2C(C(=O)[O-])=C(C[N+]3(C)CCCC3)CS[C@H]12)c1csc(N)n1` [FEP, cefepime]: the minimum inhibitory concentration (MIC) stood at 0.5 µg/mL (≈ 1.04 µM).
In the case of `Cn1c(N)c(NC(=O)NCCN)c[n+]1CC1=C(C(=O)O)N2C(=O)[C@@H](NC(=O)/C(=N\OC(C)(C)C(=O)[O-])c3nsc(N)n3)[C@H]2SC1` [TOL, ceftolozane], the MIC is 8 µg/mL (≈ 12 µM).

In another test the test system is ADC-217 in DH10B Escherichia coli. The test is described as follows: MIC by broth microdilution, ADC-217 in DH10B E. coli. The test is classed as cell-based. The note with it: DH10B E. coli expressing ADC-217 (non-Adup) from pBCSK−, FDC in iron-depleted cation-adjusted MH broth, mode of triplicate. As for the experimental part: as §1, §2
Regarding `CO/N=C(\C(=O)N[C@@H]1C(=O)N2C(C(=O)[O-])=C(C[N+]3(C)CCCC3)CS[C@H]12)c1csc(N)n1` [FEP, cefepime], the MIC amounted to 16 µg/mL (≈ 33.3 µM).
`Cn1c(N)c(NC(=O)NCCN)c[n+]1CC1=C(C(=O)O)N2C(=O)[C@@H](NC(=O)/C(=N\OC(C)(C)C(=O)[O-])c3nsc(N)n3)[C@H]2SC1` [TOL, ceftolozane] yielded a minimum inhibitory concentration (MIC) of 16 µg/mL (≈ 24 µM).

The next test relates to DH10B Escherichia coli pBCSK− no insert. Description: MIC by broth microdilution, DH10B E. coli with pBCSK− no insert. Type of test: cell-based. The conditions noted are these: DH10B E. coli with pBCSK− no insert (control strain), FDC in iron-depleted cation-adjusted MH broth. The method, then: as §1, §2
`CO/N=C(\C(=O)N[C@@H]1C(=O)N2C(C(=O)[O-])=C(C[N+]3(C)CCCC3)CS[C@H]12)c1csc(N)n1` [FEP, cefepime] had an MIC of 0.03 µg/mL (≈ 0.0624 µM).
Take `C[C@@H](O)[C@H]1C(=O)N2C(C(=O)O)=C(SCCN=CN)C[C@H]12` [IPM, imipenem]: the MIC was found to be 0.25 µg/mL (≈ 0.835 µM).
Same read-out and setting: under `Cn1c(N)c(NC(=O)NCCN)c[n+]1CC1=C(C(=O)O)N2C(=O)[C@@H](NC(=O)/C(=N\OC(C)(C)C(=O)[O-])c3nsc(N)n3)[C@H]2SC1` [TOL, ceftolozane] stands 0.5 µg/mL (≈ 0.75 µM).

In a further test the test system is ADC variants in DH10B Escherichia coli. The test is described as follows: MIC, statements across ADC variants in E. coli. Type of test: cell-based.
Settings: not given
As for the experimental part: as §1, §2
The compound `Cn1c(N)c(NC(=O)NCCN)c[n+]1CC1=C(C(=O)O)N2C(=O)[C@@H](NC(=O)/C(=N\OC(C)(C)C(=O)[O-])c3nsc(N)n3)[C@H]2SC1` [TOL, ceftolozane] returned a minimal inhibitory concentration (MIC) of at least 512 µg/mL.

The subject of the next test is ADC-143 in DH10B Escherichia coli. The test is described as follows: MIC by broth microdilution, ADC-143 in DH10B E. coli. The test is classed as cell-based. The note with it: DH10B E. coli expressing ADC-143 (non-Adup) from pBCSK−, FDC in iron-depleted cation-adjusted MH broth, mode of triplicate. As for the experimental part: as §1, §2
In turn, `CO/N=C(\C(=O)N[C@@H]1C(=O)N2C(C(=O)[O-])=C(C[N+]3(C)CCCC3)CS[C@H]12)c1csc(N)n1` [FEP, cefepime] had an MIC of 0.25 µg/mL (≈ 0.52 µM).
Same read-out and setting: under `Cn1c(N)c(NC(=O)NCCN)c[n+]1CC1=C(C(=O)O)N2C(=O)[C@@H](NC(=O)/C(=N\OC(C)(C)C(=O)[O-])c3nsc(N)n3)[C@H]2SC1` [TOL, ceftolozane] stands 16 µg/mL (≈ 24 µM).

A further test has as its system ADC-30 in DH10B Escherichia coli. The test is described as follows: MIC by broth microdilution, ADC-30 in DH10B E. coli. The conditions noted are these: DH10B E. coli expressing ADC-30 (non-Adup) from pBCSK−, FDC in iron-depleted cation-adjusted MH broth, mode of triplicate. Type of test: cell-based. As for the experimental part: as §1, §2
On to `CO/N=C(\C(=O)N[C@@H]1C(=O)N2C(C(=O)[O-])=C(C[N+]3(C)CCCC3)CS[C@H]12)c1csc(N)n1` [FEP, cefepime], for which the MIC was found to be 0.5 µg/mL (≈ 1.04 µM).
Same read-out and setting: under `Cn1c(N)c(NC(=O)NCCN)c[n+]1CC1=C(C(=O)O)N2C(=O)[C@@H](NC(=O)/C(=N\OC(C)(C)C(=O)[O-])c3nsc(N)n3)[C@H]2SC1` [TOL, ceftolozane] stands 4 µg/mL (≈ 6 µM).

Another test has as its system ADC-218 in DH10B Escherichia coli. Description: MIC by broth microdilution, ADC-218 in DH10B E. coli. The conditions noted are these: DH10B E. coli expressing ADC-218 (Adup) from pBCSK−, FDC in iron-depleted cation-adjusted MH broth, mode of triplicate. Type of test: cell-based. The method, then: as §1, §2
Consider `CO/N=C(\C(=O)N[C@@H]1C(=O)N2C(C(=O)[O-])=C(C[N+]3(C)CCCC3)CS[C@H]12)c1csc(N)n1` [FEP, cefepime], for which the minimal inhibitory concentration (MIC) turned out to be 4 µg/mL (≈ 8.32 µM).
Still for that read-out and setting: in the case of `Cn1c(N)c(NC(=O)NCCN)c[n+]1CC1=C(C(=O)O)N2C(=O)[C@@H](NC(=O)/C(=N\OC(C)(C)C(=O)[O-])c3nsc(N)n3)[C@H]2SC1` [TOL, ceftolozane] it was 512 µg/mL (≈ 768 µM).
